Measured values as given in PubChem BioAssay AID1963846 (Molecular Pharmacology Branch, DTP, NCI, 2024).

Test system: 454973-116-R2-J3-PDC complex spheroid viability
Assay: Anticancer human tumor 454973-116-R2-J3-PDC patient-derived pancreatic carcinoma cell line growth inhibition [POLQ]
Conditions: for IC50: curve of first compound; for viability, T/C: stronger effect = lower value; active = viability on the fitted dose curve at most 10% of control; inactive = the rest
Protocol: Multicellular complex tumor spheroid response to Polymerase (POL) inhibitors (novobiocin, ART-558, RP6685) in combination with a variety of drugs and investigational agents in selected tumor cell lines
The POL inhibitors (novobiocin, ART-558, and RP6685) were evaluated both individually and in combination with standard of care and investigational anticancer small molecules within a complex spheroid model of solid tumors. . Complex spheroids include a stromal component modeled by human endothelial cells (HUVEC) and fibroblasts modeled by human mesenchymal stem cells (MSCs). The concentration ranges selected for each drug and investigational agent were based upon clinically achievable concentrations if the clinical Cmax of the agent was known.
Compounds. The drugs and investigational agents: novobiocin (NSC847541), ART-558 (NSC835418), RP-6685 (NSC848927), peposertib (NSC802822), ceralasertib (NSC780249), elimusertib (NSC800525), camonsertib (NSC841442), AZD-1390 (NSC803789), olaparib (NSC753686), talazoparib (NSC767125), rucaparib (NSC756644), sotorasib (NSC818433), MRTX-1133 (NSC836407), SN-38 (NSC673596), topotecan (NSC609699), epotoside (NSC141540), doxorubicin (NSC123127), gemcitabine (NSC613327), 5-fluorouracil (NSC19893), paclitaxel (NSC125973), vemurafenib (NSC761431), MSA-2 (NSC828583), SN-011 (NSC837082), adavosertib (NSC754352), prexasertib (NSC758257), carboplatin (NSC241240) and oxaliplatin (NSC266046), were obtained from the National Cancer Institute (NCI) Developmental Therapeutics Program Chemical Repository (21). The FDA-approved anticancer drug set is available from the Developmental Therapeutics Program at https://dtp.cancer.gov/organization/dscb/obtaining/. […] The stock solutions were prepared in dimethyl sulfoxide (DMSO, Sigma-Aldrich, St. Louis, MO, cat. D2650), except for the platinum compounds which were prepared in saline (Quality Biological, Gaithersburg, MD, cat. 114-055-101), at 800-fold the tested concentration and stored at -70 degrees C prior to their use. All drugs and investigational agents were tested over a range starting from a high concentration at or near the clinical Cmax and decreasing in half-log increments. If the clinical Cmax for an agent had not been determined, the highest concentration tested was 10 microM, except for SN-38, which was tested at a high concentration of 1 microM.
Cell Culture. All cells were maintained in an incubator at 37 degrees C and 5% CO2 with 95% humidity. The PDC lines were cultured according to standard operating procedures established by the NCI PDMR (https://pdmr.cancer.gov). Table 3 of the manuscript, lists the cell lines along with the number of the three cell types plated to form the mct-spheroids and media for tumor cell growth. After thawing, all PDC lines, except 997537-175-T-J1-PDC and 415267-285-R-J2-PDC, were cultured in Matrigel-coated flasks prepared with a working solution of 1X Ham's F-12 nutrient mix, without supplementation (Thermo Fisher Scientific, cat. 11765054), 100 U/mL penicillin-streptomycin (Thermo Fisher Scientific, cat. 15140122), and 2.5% Matrigel (Corning Inc., Corning, NY, cat. 354248) for the first three passages. The two PDC lines 997537-175-T-J1-PDC and 415267-285-R-J2-PDC were cultured on uncoated flasks. The 857933-349-R-J2-PDC line was cultured in 6C/Colon 1B media containing advanced DMEM/F-12 (Thermo Fisher Scientific, cat. 12634028), 10 mM HEPES (Thermo Fisher Scientific, cat. 15630080), 1X GlutaMAX supplement (Thermo Fisher Scientific, cat. 35050061), 0.1 mg/mL primocin (InvivoGen, San Diego, CA, cat. ant-pm-2), 10% defined fetal bovine serum, heat inactivated (HyClone Laboratories Inc., Logan, UT, cat. SH30070.03HI), 50% L-WRN conditioned media (ATCC, cat. CRL-3276), 1.25 mM N-Acetyl-L-cysteine (Sigma-Aldrich, cat. A9165), 10 mM nicotinamide (Sigma-Aldrich, cat. N0636), 1X B-27 supplement (Thermo Fisher Scientific, cat. 17504044), 1X N-2 supplement (Thermo Fisher Scientific, cat. […]

[1] = second compound 0.0316 µM, first compound 0.0316 µM
[2] = second compound 0.0316 µM, first compound 0.1 µM
[3] = second compound 0.0316 µM, first compound 0.316 µM
[4] = second compound 0.0316 µM, first compound 1 µM
[5] = second compound 0.1 µM, first compound 0.0316 µM
[6] = second compound 0.1 µM, first compound 0.1 µM
[7] = second compound 0.1 µM, first compound 0.316 µM
[8] = second compound 0.1 µM, first compound 1 µM
[9] = second compound 0.316 µM, first compound 0.0316 µM
[10] = second compound 0.316 µM, first compound 0.1 µM
[11] = second compound 0.316 µM, first compound 0.316 µM
[12] = second compound 0.316 µM, first compound 1 µM
[13] = second compound 1 µM, first compound 0.0316 µM
[14] = second compound 1 µM, first compound 0.1 µM
[15] = second compound 1 µM, first compound 0.316 µM
[16] = second compound 1 µM, first compound 1 µM
[17] = second compound 3.16 µM, first compound 0.0316 µM
[18] = second compound 3.16 µM, first compound 0.1 µM
[19] = second compound 3.16 µM, first compound 0.316 µM
[20] = second compound 3.16 µM, first compound 1 µM
[21] = second compound 10 µM, first compound 0.0316 µM
[22] = second compound 10 µM, first compound 0.1 µM
[23] = second compound 10 µM, first compound 0.316 µM
[24] = second compound 10 µM, first compound 1 µM
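Note: spheroids exposed to drugs for seven days before measurement.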
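Throughout, for viability, T/C: percent viability relative to DMSO vehicle control wells taken as 100%.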

CCc1cc2c(N3CCc4c(cc(Cn5ccnc5)cc4-c4cn(C)nc4C(F)(F)F)C3=O)ccnc2c(OC)n1 + Cc1cccc(N(C)C(=O)C2C(O)CCN2c2nc(C)cc(C(F)(F)F)c2C#N)c1
> 10000 nM: IC50 (second compound 0.0316 µM) | IC50 (second compound 0.1 µM) | IC50 (second compound 0.316 µM) | IC50 (second compound 1 µM) | IC50 (second compound 3.16 µM) | IC50 (second compound 10 µM)
inactive: viability, T/C [1] 89.3% | viability, T/C [2] 86.2% | viability, T/C [3] 93.7% | viability, T/C [4] 77.8% | viability, T/C (second compound 0.0316 µM, first compound 3.16 µM) 82.2% | viability, T/C (second compound 0.0316 µM, first compound 10 µM) 62% | viability, T/C [5] 102% | viability, T/C [6] 86% | viability, T/C [7] 82% | viability, T/C [8] 85.9% | viability, T/C (second compound 0.1 µM, first compound 3.16 µM) 69.3% | viability, T/C (second compound 0.1 µM, first compound 10 µM) 62.1% | viability, T/C [9] 94% | viability, T/C [10] 89% | viability, T/C [11] 84.4% | viability, T/C [12] 83.4% | viability, T/C (second compound 0.316 µM, first compound 3.16 µM) 74% | viability, T/C (second compound 0.316 µM, first compound 10 µM) 61.5% | viability, T/C [13] 95.2% | viability, T/C [14] 85.2% | viability, T/C [15] 96% | viability, T/C [16] 78.4% | viability, T/C (second compound 1 µM, first compound 3.16 µM) 80.8% | viability, T/C (second compound 1 µM, first compound 10 µM) 61.7% | viability, T/C [17] 97.8% | viability, T/C [18] 97.8% | viability, T/C [19] 91.2% | viability, T/C [20] 74% | viability, T/C (second compound 3.16 µM, first compound 3.16 µM) 72.2% | viability, T/C (second compound 3.16 µM, first compound 10 µM) 57.3% | viability, T/C [21] 91.3% | viability, T/C [22] 87.5% | viability, T/C [23] 72.1% | viability, T/C [24] 74% | viability, T/C (second compound 10 µM, first compound 3.16 µM) 70.3% | viability, T/C (second compound 10 µM, first compound 10 µM) 55.8%

C=CCn1c(=O)c2cnc(Nc3ccc(N4CCN(C)CC4)cc3)nc2n1-c1cccc(C(C)(C)O)n1 + Nc1ccc(C#CCN(C(=O)Cc2ncc(C(F)(F)F)cc2C(F)(F)F)c2ccc(F)cc2)nn1
451 nM: IC50 (second compound 0.1 µM)
inactive: viability, T/C (second compound 0.0316 µM, first compound 0.00316 µM) 108% | viability, T/C (second compound 0.0316 µM, first compound 0.01 µM) 100% | viability, T/C [1] 104% | viability, T/C [2] 99% | viability, T/C [3] 68.7% | viability, T/C (second compound 0.1 µM, first compound 0.00316 µM) 106% | viability, T/C (second compound 0.1 µM, first compound 0.01 µM) 102% | viability, T/C [5] 102% | viability, T/C [6] 104% | viability, T/C [7] 68.5% | viability, T/C (second compound 0.316 µM, first compound 0.00316 µM) 99.3% | viability, T/C (second compound 0.316 µM, first compound 0.01 µM) 109% | viability, T/C [9] 106% | viability, T/C [10] 107% | viability, T/C [11] 79.3% | viability, T/C [12] 10.2% | viability, T/C (second compound 1 µM, first compound 0.00316 µM) 105% | viability, T/C (second compound 1 µM, first compound 0.01 µM) 101% | viability, T/C [13] 114% | viability, T/C [14] 114% | viability, T/C [15] 62.3% | viability, T/C (second compound 3.16 µM, first compound 0.00316 µM) 105% | viability, T/C (second compound 3.16 µM, first compound 0.01 µM) 114% | viability, T/C [17] 115% | viability, T/C [18] 114% | viability, T/C [19] 72.7% | viability, T/C (second compound 10 µM, first compound 0.00316 µM) 116% | viability, T/C (second compound 10 µM, first compound 0.01 µM) 116% | viability, T/C [21] 129% | viability, T/C [22] 112% | viability, T/C [23] 65%
455 nM: IC50 (second compound 0.0316 µM)
475 nM: IC50 (second compound 3.16 µM)
408 nM: IC50 (second compound 1 µM)
423 nM: IC50 (second compound 10 µM)
515 nM: IC50 (second compound 0.316 µM)
active: viability, T/C [4] 9.62% | viability, T/C [8] 8.41% | viability, T/C [16] 6.99% | viability, T/C [20] 8.66% | viability, T/C [24] 6.21%
